Results on five compounds are retold here after ChEMBL document CHEMBL5212743, “Selectivity Literature for EUbOPEN Chemogenomics Library wave 3” (2023).

Assay [1] deals with Dual specificity protein kinase CLK1 (Homo sapiens, UniProt P49759). The experiment in a line: Selectivity interaction (KinomeScan (DiscoverX)) EUB0000702a CLK1. To be noted: at 1 µM.
For assay [2], the target named is Serine/threonine-protein kinase DCLK1 (Homo sapiens) (UniProt O15075). The experiment in a line: Selectivity interaction (KinomeScan (DiscoverX)) EUB0000178b DCLK1. To be noted: at 1 µM.
Chain of Serine/threonine-protein kinase DCLK1 (Homo sapiens) (O15075 whole entry): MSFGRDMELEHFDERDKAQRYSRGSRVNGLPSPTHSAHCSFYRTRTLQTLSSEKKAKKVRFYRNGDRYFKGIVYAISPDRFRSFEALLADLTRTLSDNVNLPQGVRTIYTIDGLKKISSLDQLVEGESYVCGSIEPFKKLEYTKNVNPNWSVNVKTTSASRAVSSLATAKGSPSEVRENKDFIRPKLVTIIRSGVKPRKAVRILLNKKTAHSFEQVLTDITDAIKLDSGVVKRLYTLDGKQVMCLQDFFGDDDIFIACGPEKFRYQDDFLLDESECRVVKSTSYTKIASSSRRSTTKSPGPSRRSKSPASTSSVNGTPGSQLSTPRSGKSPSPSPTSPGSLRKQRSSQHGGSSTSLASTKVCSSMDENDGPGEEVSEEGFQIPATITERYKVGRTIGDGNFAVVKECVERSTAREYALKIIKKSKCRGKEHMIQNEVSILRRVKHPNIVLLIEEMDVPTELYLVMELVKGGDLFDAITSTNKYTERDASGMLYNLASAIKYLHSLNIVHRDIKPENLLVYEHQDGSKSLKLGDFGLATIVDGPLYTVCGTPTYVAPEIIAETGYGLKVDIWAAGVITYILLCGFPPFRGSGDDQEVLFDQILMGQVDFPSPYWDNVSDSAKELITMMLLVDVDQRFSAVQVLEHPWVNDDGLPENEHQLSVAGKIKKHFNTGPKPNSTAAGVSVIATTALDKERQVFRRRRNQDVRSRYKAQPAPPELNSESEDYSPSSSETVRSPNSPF
The target in assay [3] is T1, Serine/threonine-protein kinase ULK2 (Homo sapiens) (UniProt Q8IYT8).
T1 sequence (whole entry): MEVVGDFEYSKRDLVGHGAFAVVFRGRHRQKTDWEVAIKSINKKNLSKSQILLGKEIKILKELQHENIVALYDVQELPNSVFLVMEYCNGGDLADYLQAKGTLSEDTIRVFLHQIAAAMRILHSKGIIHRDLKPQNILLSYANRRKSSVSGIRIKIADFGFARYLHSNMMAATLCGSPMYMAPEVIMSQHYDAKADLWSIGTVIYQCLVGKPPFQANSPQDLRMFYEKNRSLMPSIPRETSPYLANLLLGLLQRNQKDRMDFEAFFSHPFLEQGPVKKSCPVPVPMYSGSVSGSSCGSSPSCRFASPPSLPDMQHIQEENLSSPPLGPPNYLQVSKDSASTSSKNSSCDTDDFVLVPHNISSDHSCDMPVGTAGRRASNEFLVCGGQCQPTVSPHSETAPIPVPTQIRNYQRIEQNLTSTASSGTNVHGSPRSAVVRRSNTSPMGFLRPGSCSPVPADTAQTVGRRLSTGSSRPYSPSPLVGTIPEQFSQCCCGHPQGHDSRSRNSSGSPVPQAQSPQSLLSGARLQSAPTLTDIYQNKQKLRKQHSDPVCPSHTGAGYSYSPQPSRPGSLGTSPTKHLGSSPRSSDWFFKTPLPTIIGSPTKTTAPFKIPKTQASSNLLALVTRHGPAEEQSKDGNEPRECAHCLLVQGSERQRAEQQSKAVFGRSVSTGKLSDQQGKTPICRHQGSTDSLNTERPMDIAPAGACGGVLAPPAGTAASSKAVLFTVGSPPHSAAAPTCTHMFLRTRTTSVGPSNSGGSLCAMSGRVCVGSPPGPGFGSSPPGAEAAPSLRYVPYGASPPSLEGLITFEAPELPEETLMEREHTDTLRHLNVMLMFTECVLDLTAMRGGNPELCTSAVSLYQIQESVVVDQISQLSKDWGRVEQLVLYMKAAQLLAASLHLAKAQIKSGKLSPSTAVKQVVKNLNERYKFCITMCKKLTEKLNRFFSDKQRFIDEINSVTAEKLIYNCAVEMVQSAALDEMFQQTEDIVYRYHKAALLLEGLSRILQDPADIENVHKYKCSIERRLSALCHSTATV
The experiment in a line: Selectivity interaction (KinomeScan (DiscoverX)) EUB0000178b ULK2. To be noted: at 1 µM.

Assay [4] addresses Phosphatidylinositol 4,5-bisphosphate 3-kinase catalytic subunit gamma isoform (Homo sapiens, UniProt P48736). The experiment in a line: Selectivity interaction (KinomeScan (DiscoverX, competition-binding assay)) EUB0000178b PIK3CG.
Assay [5] addresses T2, Mitogen-activated protein kinase kinase kinase 19 (Homo sapiens) (UniProt Q56UN5).
T2 sequence (whole entry): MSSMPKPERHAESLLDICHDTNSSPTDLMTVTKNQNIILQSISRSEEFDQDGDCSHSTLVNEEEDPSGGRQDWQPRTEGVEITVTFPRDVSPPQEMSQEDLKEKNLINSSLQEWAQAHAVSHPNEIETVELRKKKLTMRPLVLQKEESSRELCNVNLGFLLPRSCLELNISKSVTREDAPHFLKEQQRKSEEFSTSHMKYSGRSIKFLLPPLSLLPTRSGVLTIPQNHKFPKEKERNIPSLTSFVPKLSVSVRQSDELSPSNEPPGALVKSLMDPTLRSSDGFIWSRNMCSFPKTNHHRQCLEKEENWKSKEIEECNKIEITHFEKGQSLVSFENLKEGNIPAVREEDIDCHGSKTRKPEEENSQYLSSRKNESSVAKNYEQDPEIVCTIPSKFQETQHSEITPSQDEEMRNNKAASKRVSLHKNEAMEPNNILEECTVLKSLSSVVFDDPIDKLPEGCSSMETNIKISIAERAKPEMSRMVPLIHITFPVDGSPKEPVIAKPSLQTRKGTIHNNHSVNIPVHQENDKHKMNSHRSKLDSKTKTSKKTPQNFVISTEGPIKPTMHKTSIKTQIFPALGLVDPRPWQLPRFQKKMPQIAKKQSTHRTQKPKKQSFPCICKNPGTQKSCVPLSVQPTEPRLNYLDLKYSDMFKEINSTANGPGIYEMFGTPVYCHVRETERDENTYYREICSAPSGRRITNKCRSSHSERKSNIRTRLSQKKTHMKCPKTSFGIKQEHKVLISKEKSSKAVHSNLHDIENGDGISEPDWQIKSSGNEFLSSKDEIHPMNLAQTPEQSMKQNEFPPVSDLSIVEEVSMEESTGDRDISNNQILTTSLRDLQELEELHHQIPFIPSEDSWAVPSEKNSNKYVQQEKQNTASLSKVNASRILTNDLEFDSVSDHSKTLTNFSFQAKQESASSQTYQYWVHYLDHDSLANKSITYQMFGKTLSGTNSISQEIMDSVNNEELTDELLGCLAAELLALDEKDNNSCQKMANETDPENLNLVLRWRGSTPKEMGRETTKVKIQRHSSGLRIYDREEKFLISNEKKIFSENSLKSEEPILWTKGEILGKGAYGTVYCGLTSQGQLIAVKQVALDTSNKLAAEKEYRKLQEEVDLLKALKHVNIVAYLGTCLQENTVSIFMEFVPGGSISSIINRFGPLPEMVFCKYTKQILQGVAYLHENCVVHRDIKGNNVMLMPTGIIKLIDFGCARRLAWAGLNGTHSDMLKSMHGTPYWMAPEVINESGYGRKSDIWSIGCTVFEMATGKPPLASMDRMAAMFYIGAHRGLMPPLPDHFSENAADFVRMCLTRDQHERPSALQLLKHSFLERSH
The assay is described as follows: Selectivity interaction (KinomeScan (DiscoverX)) EUB0000138c MAP3K19. To be noted: at 100 nM.

Assay [6] concerns the target Epithelial discoidin domain-containing receptor 1 (Homo sapiens, UniProt Q08345). To be noted: at 1 µM.
The target of assay [7] is Cyclin-dependent kinase 2 (Homo sapiens, UniProt P24941). The assay is described as follows: Selectivity interaction (Kinase panel (University of Dundee)) EUB0000169b CDK2. To be noted: at 10 µM.
Assay [8] concerns the target Phosphorylase b kinase regulatory subunit alpha, liver isoform (Homo sapiens) (UniProt P46019). The experiment in a line: Selectivity interaction (Kinase panel (University of Dundee)) EUB0000169b PHKA2. Conditions: at 10 µM.

Some results are limits rather than exact numbers.

Chain of Phosphorylase b kinase regulatory subunit alpha, liver isoform (Homo sapiens) (P46019 whole entry, canonical isoform): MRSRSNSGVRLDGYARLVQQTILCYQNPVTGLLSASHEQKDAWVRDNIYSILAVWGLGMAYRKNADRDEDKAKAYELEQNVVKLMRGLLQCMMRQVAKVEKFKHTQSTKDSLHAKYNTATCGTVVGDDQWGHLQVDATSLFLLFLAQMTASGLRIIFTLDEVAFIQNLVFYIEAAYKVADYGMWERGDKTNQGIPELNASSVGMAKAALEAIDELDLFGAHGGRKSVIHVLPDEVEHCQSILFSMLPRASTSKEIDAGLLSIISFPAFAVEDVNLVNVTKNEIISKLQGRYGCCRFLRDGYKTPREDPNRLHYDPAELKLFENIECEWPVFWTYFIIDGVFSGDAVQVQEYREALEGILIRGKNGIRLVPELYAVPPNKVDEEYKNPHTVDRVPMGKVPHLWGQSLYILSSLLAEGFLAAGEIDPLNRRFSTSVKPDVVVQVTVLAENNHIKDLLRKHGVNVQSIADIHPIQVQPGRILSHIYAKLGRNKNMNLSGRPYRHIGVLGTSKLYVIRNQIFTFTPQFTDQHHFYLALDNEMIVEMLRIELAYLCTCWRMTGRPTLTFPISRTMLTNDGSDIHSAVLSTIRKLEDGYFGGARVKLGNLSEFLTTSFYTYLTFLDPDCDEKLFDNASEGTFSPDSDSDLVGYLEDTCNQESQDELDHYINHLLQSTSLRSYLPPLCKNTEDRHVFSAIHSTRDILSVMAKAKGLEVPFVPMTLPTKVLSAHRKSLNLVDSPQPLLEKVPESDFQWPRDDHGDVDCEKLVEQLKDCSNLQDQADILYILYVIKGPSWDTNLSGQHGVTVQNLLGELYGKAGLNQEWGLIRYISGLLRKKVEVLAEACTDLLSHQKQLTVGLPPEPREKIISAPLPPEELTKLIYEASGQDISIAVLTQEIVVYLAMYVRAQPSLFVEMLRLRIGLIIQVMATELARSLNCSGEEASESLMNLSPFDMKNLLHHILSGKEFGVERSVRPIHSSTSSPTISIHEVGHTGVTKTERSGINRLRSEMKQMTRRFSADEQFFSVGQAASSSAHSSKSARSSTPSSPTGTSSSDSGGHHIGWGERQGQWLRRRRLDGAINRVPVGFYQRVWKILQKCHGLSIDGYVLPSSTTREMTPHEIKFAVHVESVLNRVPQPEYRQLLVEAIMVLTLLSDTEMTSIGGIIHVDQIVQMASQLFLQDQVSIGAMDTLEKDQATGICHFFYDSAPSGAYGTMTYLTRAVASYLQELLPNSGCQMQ
Chain of Dual specificity protein kinase CLK1 (P49759 whole entry, looked up): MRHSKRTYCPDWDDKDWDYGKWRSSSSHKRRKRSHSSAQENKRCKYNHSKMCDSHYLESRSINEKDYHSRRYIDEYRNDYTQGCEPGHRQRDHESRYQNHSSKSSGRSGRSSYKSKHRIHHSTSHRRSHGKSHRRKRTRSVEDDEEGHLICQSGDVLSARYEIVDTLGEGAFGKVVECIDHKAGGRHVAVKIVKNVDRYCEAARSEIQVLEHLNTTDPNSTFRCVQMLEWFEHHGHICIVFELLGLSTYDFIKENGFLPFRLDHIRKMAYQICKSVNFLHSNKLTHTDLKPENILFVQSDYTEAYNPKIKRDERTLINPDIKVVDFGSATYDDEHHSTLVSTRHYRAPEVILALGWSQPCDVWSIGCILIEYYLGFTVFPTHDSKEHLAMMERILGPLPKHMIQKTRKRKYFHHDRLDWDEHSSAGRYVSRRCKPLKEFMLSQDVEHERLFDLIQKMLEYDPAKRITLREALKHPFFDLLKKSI
Chain of Phosphatidylinositol 4,5-bisphosphate 3-kinase catalytic subunit gamma isoform (P48736 whole entry, canonical isoform): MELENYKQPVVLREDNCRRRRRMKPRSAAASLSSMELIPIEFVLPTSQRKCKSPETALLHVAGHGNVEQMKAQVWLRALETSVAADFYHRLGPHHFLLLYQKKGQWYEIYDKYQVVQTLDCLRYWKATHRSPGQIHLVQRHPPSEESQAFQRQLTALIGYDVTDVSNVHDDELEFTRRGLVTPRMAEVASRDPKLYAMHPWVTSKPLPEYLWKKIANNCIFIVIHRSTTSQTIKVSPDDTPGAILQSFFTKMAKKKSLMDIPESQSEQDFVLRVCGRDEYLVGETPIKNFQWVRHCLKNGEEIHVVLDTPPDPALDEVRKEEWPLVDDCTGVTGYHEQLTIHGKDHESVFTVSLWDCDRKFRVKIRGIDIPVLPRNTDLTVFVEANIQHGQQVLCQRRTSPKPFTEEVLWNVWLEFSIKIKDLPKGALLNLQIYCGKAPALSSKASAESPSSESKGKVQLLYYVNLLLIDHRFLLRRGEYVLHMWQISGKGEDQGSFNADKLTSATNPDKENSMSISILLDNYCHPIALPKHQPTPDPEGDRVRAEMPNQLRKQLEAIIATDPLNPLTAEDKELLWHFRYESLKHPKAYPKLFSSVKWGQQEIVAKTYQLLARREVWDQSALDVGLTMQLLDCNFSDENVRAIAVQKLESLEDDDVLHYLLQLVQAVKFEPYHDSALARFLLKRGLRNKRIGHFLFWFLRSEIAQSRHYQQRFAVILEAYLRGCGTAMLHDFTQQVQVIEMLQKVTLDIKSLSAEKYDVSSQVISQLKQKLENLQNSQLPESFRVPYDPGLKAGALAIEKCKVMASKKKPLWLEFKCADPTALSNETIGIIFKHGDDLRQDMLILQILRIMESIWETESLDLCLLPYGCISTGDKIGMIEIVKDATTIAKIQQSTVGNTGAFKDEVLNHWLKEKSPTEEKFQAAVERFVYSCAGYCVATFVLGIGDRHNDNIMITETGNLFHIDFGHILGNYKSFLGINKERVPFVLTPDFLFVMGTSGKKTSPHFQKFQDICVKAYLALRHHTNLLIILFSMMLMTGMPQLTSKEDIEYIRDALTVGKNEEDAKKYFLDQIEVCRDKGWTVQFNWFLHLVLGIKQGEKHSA
Chain of Epithelial discoidin domain-containing receptor 1 (Q08345 whole entry, the tested form may be a part): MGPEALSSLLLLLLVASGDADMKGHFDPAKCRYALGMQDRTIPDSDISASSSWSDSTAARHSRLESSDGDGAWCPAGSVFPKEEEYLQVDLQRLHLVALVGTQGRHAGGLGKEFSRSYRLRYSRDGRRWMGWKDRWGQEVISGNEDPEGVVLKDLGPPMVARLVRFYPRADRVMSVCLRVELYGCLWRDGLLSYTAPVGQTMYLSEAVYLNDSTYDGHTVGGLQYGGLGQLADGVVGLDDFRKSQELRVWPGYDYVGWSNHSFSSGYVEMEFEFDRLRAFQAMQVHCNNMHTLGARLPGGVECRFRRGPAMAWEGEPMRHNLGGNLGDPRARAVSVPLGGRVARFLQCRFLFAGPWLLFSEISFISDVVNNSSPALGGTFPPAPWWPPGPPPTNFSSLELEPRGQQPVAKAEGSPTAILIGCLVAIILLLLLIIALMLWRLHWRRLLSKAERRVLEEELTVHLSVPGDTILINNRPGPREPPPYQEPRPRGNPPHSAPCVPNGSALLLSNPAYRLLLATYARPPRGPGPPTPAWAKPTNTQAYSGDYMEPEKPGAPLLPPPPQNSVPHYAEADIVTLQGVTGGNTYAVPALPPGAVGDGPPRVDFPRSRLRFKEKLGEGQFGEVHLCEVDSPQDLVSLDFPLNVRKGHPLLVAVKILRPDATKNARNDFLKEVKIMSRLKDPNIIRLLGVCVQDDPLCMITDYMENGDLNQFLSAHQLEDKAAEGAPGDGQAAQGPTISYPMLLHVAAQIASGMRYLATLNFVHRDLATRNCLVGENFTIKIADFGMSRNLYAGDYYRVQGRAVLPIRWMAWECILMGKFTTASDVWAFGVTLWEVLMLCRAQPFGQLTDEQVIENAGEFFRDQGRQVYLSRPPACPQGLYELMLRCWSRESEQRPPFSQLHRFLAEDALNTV

`CN(c1ccnc(CNc2nc(Nc3ccc4c(c3)CC(=O)N4)ncc2C(F)(F)F)n1)S(C)(=O)=O` [PF-00911705]: the % of control in assay [1] worked out at 4.4%.
The term Kd denotes the free concentration of one partner at which half of the binding sites on the other are occupied at equilibrium, for simple one-to-one binding. Low values mean tighter binding, high ones weaker binding. Regarding `CN1C(=O)c2sccc2N(C)c2nc(Nc3ccc(S(N)(=O)=O)cc3)ncc21`, the % of control in assay [2] was 8.3%; in assay [3], 4.8%. In assay [4], this compound showed a Kd of 8.4 nM.
The compound `CNC(=O)c1ccc(Nc2ncc(C(F)(F)F)c(NCc3nccnc3N(C)S(C)(=O)=O)n2)cc1` [DEFACTINIB] came in with a % of control in assay [5] of 1.7%.
Take `CCOc1cn(-c2ccc(F)cc2C)nc1C(=O)Nc1ccc(Oc2ccnc3cc(OC)c(OC)cc23)c(F)c1`: the % of control in assay [6] is below 10%.
Take `CC[C@@H]1C(=O)N(C)c2cnc(Nc3ccc(C(=O)NC4CCN(C)CC4)cc3OC)nc2N1C1CCCC1`: the % of control in assay [7] came to 20%; in assay [8], 60%.
